Measurements published in patent US20090286816A1, “MODULATORS OF METABOLISM AND THE TREATMENT OF DISORDERS RELATED THERETO” (ARENA PHARMACEUTICALS, INC., priority 2006, published 2009).
Like-named read-outs stand apart in the source and are kept apart here.

Columns and labels:
[1] = Rat dose-range PK study (dose escalation pharmacokinetics); type: in vivo; conditions: for AUC(0-t): male, SD, plasma, PO, read-out: AUC24 hr
Experimental: Male SD rats (250-300 g) were purchased from Charles River Laboratory; upon receipt, animals were placed under light-dark cycle (6:30 am-6:30 pm lights on). They were allowed ad libitum access to water and 4 pieces of food daily (Purina Meals Rodent Diet, Product Number 5001).
Compound formulations were prepared as following: The IV injection formulation was prepared in 20% hydroxypropyl-beta-cyclodextrin with concentration of 0.667 mg/mL. […] The dosing volume for IV injection was 3 mL/Kg and for PO administration was 10 mL/Kg. Four rats were used for each dose group. […]
All rats (4 rats per group, housed individually) were fasted overnight prior to in-life phase. On the next morning, rats were received an IV (via tail vein injection) injection or gavage dose of compound starting at 8 am (IV) and 9 am (PO). Next, each rat were orbital bled at 0.085, 0.25, 0.5, 1, 2, 4, 6, 8, and 24 hr (IV) or 0.5, 1, 2, 4, 6, 8, and 24 hr (PO) to collect blood samples for PK analysis.
The blood samples were collected via orbital bleeding into tubes containing EDTA, 0.25 mL blood each time. These samples were put on ice and within 2 hours plasma was prepared by centrifugation at 3,000 rpm for 30 min at 4° C. 100 μl of plasma were transferred into a 96-tube box for PK analysis.
Plasma samples were prepared as follows. Two hundred microliters of acetonitrile containing internal standard was added to 100 μL of plasma to precipitate proteins. Samples were centrifuged at 3000 g for 5 minutes and supernatant removed for analysis by LC-MS-MS. Calibration standards and quality control samples were prepared by adding a known volume of standard stock solution (50% methanol, 50% H2O) directly into blank plasma and treated identically to collected plasma samples. Calibration standards were typically prepared in the range of 2.0 ng/mL to 110 μg/mL with linear regression for quantitation. These sample preparation steps were automated using a liquid handling workstation (Tomtec Quadra 96) in the 96-well format. Reversed phase LC-MS-MS analysis was performed using either multiple reaction or selected ion monitoring for detection of characteristic ions for each drug candidate and the internal standard used was propranolol for positive ions or chloramphenicol for negative ions.
Results were calculated by noncompartmental analysis using WinNonlin Pro version 3.1 based on plasma concentration-time profiles for individual animals. Plasma levels were determined as described above and the oral and intravenous area under the concentration vs. time curve (AUC was calculated using the linear trapezoidal rule up to the last measurable concentration and was then extrapolated to infinity) were compared to determine the % bioavailability (% F) by the following formula: Dose (IV)*AUC (oral)/Dose (oral)*AUC (IV).
There may be significant variation within the individual animals and the analytical method and that variation was evidenced by the % CV. AUMC was the first statistical moment of the AUC and was used to calculate the mean residence time (MRT=AUMC/AUC), which was the average time the compound was in the animal. The Cmax represented the maximum concentration observed, the Tmax was the time to reach that maximum concentration and the T1/2 was the calculated terminal half-life of the compound in plasma using the slope of a log concentration vs time plot if there were sufficient elimination phase data points (at least three data points in the terminal phase excluding the Cmax). Systemic clearance (CL=Dose(IV)/AUC(IV)) was the volume of fluid (containing compound) from which compound was removed completely per unit time. Volume of distribution at steady state (Vss=CL*MRT) was the extent of distribution of a drug from the plasma to the tissues at steady state.

Male Sprague Dawley rats = assay: Oral glucose tolerance test (oGTT) in rats; type: in vivo, rat; conditions: fasted male SD rats, p.o. 30 min before dextrose 3 g/kg, mean of six animals, dose of the group not stated (0.3, 3 or 30 mg/kg tested)
Experimental: Male Sprague Dawley rats (Harlan, San Diego, Calif.) weighing approximately 350-375 g were fasted for 16 hours and randomly grouped (n=6) to receive a RUP3 agonist at 0.3, 3 or 30 mg/kg. Compounds were delivered orally via a gavage needle (p.o., volume 2 mL/kg). At time 0, levels of blood glucose were assessed using a glucometer (Accu-Chek Advantage, Roche Diagnostics), and rats were administered either vehicle (20% hydroxypropyl-beta-cyclodextrin) or test compound. Thirty minutes after administration of test compound, levels of blood glucose were again assessed, and rats were administered dextrose orally at a dose of 3 g/kg. Blood glucose measurements were then taken 30 min, 60 min, and 120 min after this time.

RUP3 receptor [2] = biological target: T1, RUP3 receptor (Canis lupus familiaris, UniProt A0A8I3QZL6); assay: RUP3 dose response in melanophores (dog receptor); type: cell-based
T1 sequence (A0A8I3QZL6 1-335): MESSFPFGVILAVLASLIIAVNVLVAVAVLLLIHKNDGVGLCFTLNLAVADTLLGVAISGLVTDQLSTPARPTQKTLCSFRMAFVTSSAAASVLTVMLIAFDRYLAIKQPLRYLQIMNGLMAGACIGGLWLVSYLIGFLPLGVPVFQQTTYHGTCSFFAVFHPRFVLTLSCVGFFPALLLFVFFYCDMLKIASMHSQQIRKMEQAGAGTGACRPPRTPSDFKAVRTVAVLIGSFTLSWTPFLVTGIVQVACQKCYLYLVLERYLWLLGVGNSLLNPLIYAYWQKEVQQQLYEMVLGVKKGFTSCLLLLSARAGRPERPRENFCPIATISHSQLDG
Experimental: (§1) Melanophores are maintained in culture as reported by Potenza, M. N. and Lerner, M. R., in Pigment Cell Research, Vol. 5, 372-378, 1992 and transfected with the RUP3 expression vector (pCMV) using electroporation. Following electroporation, the transfected cells are plated into 96 well plates for the assay. The cells are then allowed to grow for 48 hours in order to both recover from the electroporation procedure and attain maximal receptor expression levels. On the assay day, the growth medium on the cells is replaced with serum-free buffer containing 10 nM melatonin. The melatonin acts via an endogenous Gi-coupled GPCR in the melanophores to lower intracellular cAMP levels. In response to lowered cAMP levels, the melanophores translocate their pigment to the center of the cell. The net effect of this is a significant decrease in the absorbance reading of the cell monolayer in the well, measured at […]. After a 1-hour incubation in melatonin, the cells become completely pigment-aggregated. At this point a baseline absorbance reading is collected. Serial dilutions of test compounds are then added to the plate and compounds that stimulate RUP3 produce increases in intracellular cAMP levels. […] The measured increase in absorbance compared to the baseline reading allows one to quantitate the degree of receptor stimulation and plot a dose-response curve.

RUP3 receptor [3] = biological target: T2, RUP3 receptor (Rattus norvegicus, UniProt Q7TQN8); assay: RUP3 dose response in melanophores (rat receptor); type: cell-based
T2 construct: expressed in transfected cells; host or cells: melanophores (cultured per Potenza and Lerner 1992), electroporated
T2 sequence (Q7TQN8 1-468): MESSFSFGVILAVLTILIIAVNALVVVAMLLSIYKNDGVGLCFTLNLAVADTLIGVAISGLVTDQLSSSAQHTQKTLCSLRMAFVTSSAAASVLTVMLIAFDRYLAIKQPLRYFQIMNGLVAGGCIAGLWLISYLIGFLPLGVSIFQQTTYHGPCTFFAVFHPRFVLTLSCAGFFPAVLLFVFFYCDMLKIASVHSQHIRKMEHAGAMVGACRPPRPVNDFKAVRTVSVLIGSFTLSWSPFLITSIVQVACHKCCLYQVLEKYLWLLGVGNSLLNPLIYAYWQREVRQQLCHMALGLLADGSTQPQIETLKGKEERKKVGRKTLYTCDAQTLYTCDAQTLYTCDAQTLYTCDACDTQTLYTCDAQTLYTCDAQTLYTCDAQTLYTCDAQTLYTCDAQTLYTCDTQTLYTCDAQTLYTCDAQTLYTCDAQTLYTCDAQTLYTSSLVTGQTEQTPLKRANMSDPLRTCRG
Experimental: as §1

RUP3 receptor [4] = biological target: T3, RUP3 receptor (Mus musculus, UniProt Q7TQP3); assay: RUP3 dose response in melanophores (mouse receptor); type: cell-based
T3 construct: expressed in transfected cells; host or cells: melanophores (cultured per Potenza and Lerner 1992), electroporated
T3 sequence (Q7TQP3 1-335): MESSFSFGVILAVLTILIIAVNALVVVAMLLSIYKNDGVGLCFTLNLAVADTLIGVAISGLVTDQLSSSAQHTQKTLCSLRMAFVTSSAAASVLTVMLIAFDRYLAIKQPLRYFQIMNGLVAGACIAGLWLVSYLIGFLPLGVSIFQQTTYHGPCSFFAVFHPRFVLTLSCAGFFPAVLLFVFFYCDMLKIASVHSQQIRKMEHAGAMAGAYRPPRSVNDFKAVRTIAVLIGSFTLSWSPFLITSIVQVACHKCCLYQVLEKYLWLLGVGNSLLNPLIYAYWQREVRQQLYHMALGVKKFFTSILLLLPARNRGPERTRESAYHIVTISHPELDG
Experimental: as §1

RUP3 receptor [5] = biological target: T4, RUP3 receptor (Homo sapiens, UniProt Q8TDV5); assay: RUP3 dose response in melanophores (human receptor); type: cell-based
T4 construct: expressed in transfected cells; host or cells: melanophores (cultured per Potenza and Lerner 1992), electroporated
T4 sequence (Q8TDV5 1-335): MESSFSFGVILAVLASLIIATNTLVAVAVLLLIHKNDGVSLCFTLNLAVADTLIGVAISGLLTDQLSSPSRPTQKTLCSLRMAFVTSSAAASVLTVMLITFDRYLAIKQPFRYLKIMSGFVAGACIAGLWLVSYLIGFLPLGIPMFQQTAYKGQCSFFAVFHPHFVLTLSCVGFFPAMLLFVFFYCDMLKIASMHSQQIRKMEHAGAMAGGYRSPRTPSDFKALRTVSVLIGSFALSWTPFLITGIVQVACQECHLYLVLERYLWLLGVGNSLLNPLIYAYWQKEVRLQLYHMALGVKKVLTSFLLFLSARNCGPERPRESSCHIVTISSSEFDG
Experimental: as §1

SMILES	AUC(0-t) ([1]; dose 3 mg) [ng·h/mL]	AUC(0-t) ([1]; dose 30 mg) [ng·h/mL]	AUC(0-t) ([1]; dose 300 mg) [ng·h/mL]	also measured
Cc1c(Nc2ccc(S(C)(=O)=O)cc2F)ncnc1OC1CCN(c2nc(C(C)C)no2)CC1 [Compound B, (2-Fluoro-4-methanesulfonyl-phenyl)-{6-[1-(3-isopropyl-[1,2,4]oxadiazol-5-yl)-piperidin-4-yloxy]-5-methyl-pyrimidin-4-yl}-amine]	2120	5990	11000	–
Cc1nc(S(C)(=O)=O)ccc1Nc1ncnc(OC2CCN(C(=O)OC(C)C)CC2)c1C [Compound E, 4-[6-(6-methanesulfonyl-2-methyl-pyridin-3-ylamino)-5-methyl-pyrimidin-4-yloxy]-piperidine-1-carboxylic acid isopropyl ester]	4730	55900	515000	–
COc1c(Nc2cnc(S(C)(=O)=O)cc2C)ncnc1OC1CCN(C(=O)OC(C)C)CC1 [Compound D, 4-[6-(6-Methanesulfonyl-4-methyl-pyridin-3-ylamino)-5-methoxypyrimidin-4-yloxy]-piperidine-1-carboxylic acid isopropyl ester]	5600	29400	54700	–
COc1c(Nc2ccc(-n3cncn3)nc2C)ncnc1OC1CCN(C(=O)OC(C)C)CC1 [Compound of Formula (I), 4-[5-Methoxy-6-(2-methyl-6-[1,2,4]triazol-1-yl-pyridin-3-ylamino)-pyrimidin-4-yloxy]-piperidine-1-carboxylic acid isopropyl ester]	3590	79800	286000	mean percent inhibition of glucose excursion (Male Sprague Dawley rats): 60%; EC50 (RUP3 receptor [2]): 4 nM; EC50 (RUP3 receptor [3]): 81 nM; EC50 (RUP3 receptor [4]): 57 nM; EC50 (RUP3 receptor [5]): 2 nM; dose escalation pharmacokinetics (AUC vs dose) ([1]; PO 3, 30, 300 mg/Kg, FIG. 1): essentially linear
COc1c(Nc2ccc(S(C)(=O)=O)nc2C)ncnc1OC1CCN(c2nc(C(C)C)no2)CC1 [Compound G, {6-[1-(3-Isopropyl-[1,2,4]oxadiazol-5-yl)-piperidin-4-yloxy]-5-methoxy-pyrimidin-4-yl}-(6-methanesulfonyl-2-methyl-pyridin-3-yl)-amine]	1660	6470	33800	–
CC(C)OC(=O)N1CCC(Oc2ncnc3c2cnn3-c2ccc(S(C)(=O)=O)cc2F)CC1 [Compound A, 4-[1-(2-Fluoro-4-methanesulfonyl-phenyl)-1H-pyrazolo[3,4-d]pyrimidin-4-yloxy]-piperidine-1-carboxylic acid isopropyl ester]	–	9930	97000	AUC(0-t) ([1]; dose 10 mg): 2590 ng·h/mL; AUC(0-t) ([1]; dose 100 mg): 133000 ng·h/mL; AUC(0-t) ([1]; dose 1000 mg): 377000 ng·h/mL
COc1c(Nc2ccc(S(C)(=O)=O)nc2C)ncnc1OC1CCN(C(=O)OC(C)C)CC1 [Compound C, 4-[6-(6-Methanesulfonyl-2-methyl-pyridin-3-ylamino)-5-methoxy-pyrimidin-4-yloxy]-piperidine-1-carboxylic acid isopropyl ester]	14900	65900	419000	–
